# Source: BindingDB's records for doi:10.1021/acs.jmedchem.7b00585 (The Scripps Research Institute, 2017)
# pKi: −log10 of the molar value.
# Target: T1, Estrogen receptor (Homo sapiens, UniProt P03372)
# T1 sequence (P03372 whole entry): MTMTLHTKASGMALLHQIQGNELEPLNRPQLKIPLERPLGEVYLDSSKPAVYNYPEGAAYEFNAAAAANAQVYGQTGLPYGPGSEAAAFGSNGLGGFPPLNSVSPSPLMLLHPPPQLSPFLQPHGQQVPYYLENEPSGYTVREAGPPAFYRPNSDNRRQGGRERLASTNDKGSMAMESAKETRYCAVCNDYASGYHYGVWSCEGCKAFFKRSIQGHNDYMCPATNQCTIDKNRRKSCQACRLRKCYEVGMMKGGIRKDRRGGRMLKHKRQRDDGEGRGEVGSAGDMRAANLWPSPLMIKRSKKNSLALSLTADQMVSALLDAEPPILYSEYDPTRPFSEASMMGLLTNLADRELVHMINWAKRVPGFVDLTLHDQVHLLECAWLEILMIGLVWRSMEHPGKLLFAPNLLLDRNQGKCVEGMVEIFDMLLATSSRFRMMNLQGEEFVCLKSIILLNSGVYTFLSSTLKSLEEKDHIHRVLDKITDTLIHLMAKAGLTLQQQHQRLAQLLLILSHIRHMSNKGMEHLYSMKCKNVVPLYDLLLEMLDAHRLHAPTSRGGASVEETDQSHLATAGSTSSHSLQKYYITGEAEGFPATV
# Experiment: ChEBML_1664056
# Text: (§1) Displacement of [3H]estradiol from full-length human ERalpha receptor by scintillation counting
row,SMILES,pKi
1,CCCCNC(=O)/C=C/c1ccc(C(=C2C3CC4CC(C3)CC2C4)c2ccc(O)cc2)cc1,9.15

# Target: T1, Estrogen receptor
# Experiment: as §1
row,SMILES,pKi
1,NCCCNC(=O)/C=C/c1ccc(C(=C2C3CC4CC(C3)CC2C4)c2ccc(O)cc2)cc1,9.43
2,CCCCN(C)C(=O)/C=C/c1ccc(C(=C2C3CC4CC(C3)CC2C4)c2ccc(O)cc2)cc1,9.15
3,O=C(/C=C/c1ccc(C(=C2C3CC4CC(C3)CC2C4)c2ccc(O)cc2)cc1)OCCO,9.43
4,O=C(/C=C/c1ccc(C(=C2C3CC4CC(C3)CC2C4)c2ccc(O)cc2)cc1)NCCCO,9.37
5,COC(=O)/C=C/c1ccc(C(=C2C3CC4CC(C3)CC2C4)c2ccc(O)cc2)cc1,9.37
6,O=C(/C=C/c1ccc(C(=C2C3CC4CC(C3)CC2C4)c2ccc(O)cc2)cc1)OCCCO,9.15
